Test results: article PMC7036753, “Lipidated Analogs of the LL-37-Derived Peptide Fragment KR12—Structural Analysis, Surface-Active Properties and Antimicrobial Activity” (International Journal of Molecular Sciences, 2020)
Converted amounts (≈) assume the structure as drawn. Peptide text beside a SMILES is read from it. * marks the point of attachment. Bz = O=C(c1ccccc1)*

What was measured:
[1] = system: A. baumannii ATCC BAA-1605; format: cell-based, Acinetobacter baumannii; conditions: A. baumannii ATCC BAA-1605; Mueller-Hinton Broth, 18 h
Summary of the method: (§1)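 Read-out is the lowest compound concentration that prevents visible bacterial growth (MIC), determined after 18 h at 37 °C in Mueller–Hinton broth. Tested range spanned 0.5–256 µg/mL against an inoculum of 0.5 × 10^5 CFU/mL, following the CLSI microdilution protocol.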

S. aureus ATCC 25923 = format: cell-based, Staphylococcus aureus; conditions: S. aureus ATCC 25923; Mueller-Hinton Broth, 18 h
Summary of the method: as §1

S. aureus ATCC 6538 = format: cell-based, Staphylococcus aureus; conditions: S. aureus ATCC 6538; Mueller-Hinton Broth, 18 h
Summary of the method: as §1

S. aureus ATCC 12598 = format: cell-based, Staphylococcus aureus; conditions: S. aureus ATCC 12598; Mueller-Hinton Broth, 18 h
Summary of the method: as §1

S. aureus ATCC 9144 = format: cell-based, Staphylococcus aureus; conditions: S. aureus ATCC 9144; Mueller-Hinton Broth, 18 h
Summary of the method: as §1

[2] = system: S. aureus ATCC 33591 (MRSA); format: cell-based, Staphylococcus aureus; conditions: S. aureus ATCC 33591 (MRSA); Mueller-Hinton Broth, 18 h
Summary of the method: as §1

E. faecium ATCC 700221 = format: cell-based, Enterococcus faecium; conditions: E. faecium ATCC 700221; Mueller-Hinton Broth, 18 h
Summary of the method: as §1

[3] = system: K. pneumoniae ATCC 700603; format: cell-based, Klebsiella pneumoniae; conditions: K. pneumoniae ATCC 700603; Mueller-Hinton Broth, 18 h
Summary of the method: as §1

P. aeruginosa ATCC 9027 = format: cell-based, Pseudomonas aeruginosa; conditions: P. aeruginosa ATCC 9027; Mueller-Hinton Broth, 18 h
Summary of the method: as §1

[4] = system: reference strains of S. aureus; format: cell-based, Staphylococcus aureus; conditions: five reference strains of S. aureus
K. aerogenes ATCC 13048 = format: cell-based, Klebsiella aerogenes; conditions: K. aerogenes ATCC 13048; Mueller-Hinton Broth, 18 h
Summary of the method: as §1

[5] = system: human red blood cells (hRBCs); test: Hemolysis assay; format: cell-based; conditions: concentration range 0.5–256 μg/mL
Description: Then the stock RBCs solution was added up to a final volume of 100 μL with a 4% concentration of erythrocytes (v/v). The control wells for 0 and 100% hemolysis were also prepared. They consisted of RBCs suspended in PBS and 1% of Triton-X 100, respectively.

Compound: CC[C@H](C)[C@H](NC(=O)[C@H](CCCNC(=N)N)NC(=O)[C@H](CCC(N)=O)NC(=O)[C@@H](NC(=O)[C@@H](NC(=O)[C@H](CCCNC(=N)N)NC(=O)[C@H](CCCCN)NC(=O)c1ccccc1)[C@@H](C)CC)C(C)C)C(=O)N[C@@H](CCCCN)C(=O)N[C@@H](CC(=O)O)C(=O)N[C@@H](Cc1ccccc1)C(=O)N[C@@H](CC(C)C)C(=O)N[C@@H](CCCNC(=N)N)C(N)=O [VIII, Benzoic acid-KR12-NH2] (Bz-KRIVQRIKDFLR-NH2)
- MIC [1]: 16 µg/mL (≈ 9.55 µM)
- MIC (S. aureus ATCC 25923): 32 µg/mL (≈ 19.1 µM)
- MIC (S. aureus ATCC 6538): 8 µg/mL (≈ 4.78 µM)
- MIC (S. aureus ATCC 12598): 16 µg/mL (≈ 9.55 µM)
- MIC (S. aureus ATCC 9144): 16 µg/mL (≈ 9.55 µM)
- MIC [2]: 32 µg/mL (≈ 19.1 µM)
- MIC (E. faecium ATCC 700221): 1 µg/mL (≈ 0.597 µM)
- MIC [3]: 16 µg/mL (≈ 9.55 µM)
- MIC (P. aeruginosa ATCC 9027): 8 µg/mL (≈ 4.78 µM)
- GM (geometric mean of the MIC values against S. aureus) [4]: 18.38 µg/mL
- MIC (K. aerogenes ATCC 13048): 16 µg/mL (≈ 9.55 µM)
- hemolysis of hRBCs [5]: did not cause hemolysis
